From patent US20200102264A1, “MARMELIN ANALOGS AND METHODS OF USE IN CANCER TREATMENT” (THE UNIVERSITY OF KANSAS, priority 2014, published 2020)

Columns and labels:
KU7 bladder cancer cells = experiment: hexoseaminidase cell proliferation assay, KU7; type: cell-based
Method: (§1) Using hexoseaminidase assay, we determined the effect of the compounds on cell proliferation. […] The IC50 value at 48 hours is below 10 μM in all the cancer cell lines.

[1] = system: MiaPaCa-2 pancreatic cancer cells; experiment: hexoseaminidase cell proliferation assay, MiaPaCa-2; type: cell-based; settings: Homo sapiens, MIA PaCa-2
Method: as §1
(§2) Using hexoseaminidase assay, we determined the effect of the compounds on cell proliferation. […] The MRL16 IC50 value at 48 hours is below 0.3 μM in Colon cancer cell lines. […] Overall, the analogs can be used as chemotherapeutic agents against colon and pancreatic cancer.

PanC-1 cells = experiment: colony formation, PanC-1; type: cell-based
HCT116 cells [2] = experiment: cell cycle analysis, HCT116; type: cell-based; settings: for cell cycle effect (in words): HCT116 cells
[3] = system: 253JBV bladder cancer cells; experiment: hexoseaminidase cell proliferation assay, 253JBV; type: cell-based
Method: as §1

SW480 cells [4] = experiment: colony formation, SW480; type: cell-based
[5] = system: HCT116 colon cancer cells; experiment: hexoseaminidase cell proliferation assay, HCT116; type: cell-based; settings: Homo sapiens, HCT-116
Excerpt: (§3) Using hexoseaminidase assay, we determined the effect of the compounds on cell proliferation. […]
(§4) Using hexoseaminidase assay, we determined the effect of the compounds on cell proliferation. […] […] […] Overall, the analogs can be used as chemotherapeutic agents against colon and pancreatic cancer.

cancer stem cells = experiment: colonosphere formation; type: cell-based
Method: It was also determined the analogs inhibit colonosphere formation from cancer stem cells. […] The columns are 0, 10, 25, and 50 micromolar concentrations of the compounds labeled by rows.
The effect of the compounds on colonosphere formation was determined. […] Overall, the analogs have shown they can be used as chemotherapeutic agents against colon, pancreatic and bladder cancer.

HCT116 cells [6] = experiment: colony formation, HCT116; type: cell-based
[7] = system: HCT116 colon cancer tumor xenografts; experiment: HCT116 colon cancer tumor xenografts in nude mice; type: in vivo
Method: (§5) For in vivo, HCT116 cells were injected into the blanks of nude mice, after one week when there was a palpable tumor and these compounds were injected intraperitonially (5 mg/kg body weight) every day for 21 days. Tumor volumes were measured weekly. On 29th day mice were euthanized and the tumors were removed and weighed for use in histology, immunohistochemistry, and gene expression studies. Both THB and THBCD inhibited growth of the tumor. It is noted that the images of FIG. 4C are from left to right: control; THB; and THBCD.
as §5, with “DBQ” for “Both THB and THBCD”, “inhibited the” for “inhibited”, “16C” for “4C”, “control;” for “control; THB;”, “DBQ.” for “THBCD.”
FIGS. 19A and 19B show MRL 16 inhibits tumor growth, such as on colon cancer tumor xenografts. For in vivo, HCT116 cells were injected into the blanks of nude mice, after one week when there was a palpable tumor and these compounds were injected intraperitonially (2 mg/kg body weight) every day for 21 days. Tumor volumes were measured weekly. On 29th day mice were euthanized and the tumors were removed and weighed. MRL16 inhibited growth of the tumor.

SW480 colon cancer cells = experiment: hexoseaminidase cell proliferation assay, SW480; type: cell-based; settings: Homo sapiens
Excerpt: as §3, §4

[8] = system: colon, pancreatic and bladder cancer cells; experiment: hexoseaminidase cell proliferation assay, summaries over cell lines; type: cell-based; settings: for inhibition of cell proliferation (in words): dose and time dependent
Method: Water solubility studies were performed with the CD/analog complexes. […] The observed IC50 value of THBCD at 48 h is below 10 μM in all the colon, pancreatic and bladder cancer cells.
as §1, §2

[9] = system: PanC-1 pancreatic cancer cells; experiment: hexoseaminidase cell proliferation assay, PanC-1; type: cell-based; settings: Homo sapiens
Method: as §1, §2

MiaPaCa-2 cells = experiment: colony formation, MiaPaCa-2; type: cell-based
HCT116 cells [10] = experiment: colonosphere formation, HCT116; type: cell-based
Excerpt: These compounds may be preferred in some instances.

SW480 cells [11] = experiment: cell cycle analysis, SW480; type: cell-based
Method: The analogs were tested to determine the ability induce death of colon cancer cells.

[12] = intraperitoneal 5 mg/kg body weight every day for 21 days
[13] = intraperitoneal 2 mg/kg body weight every day for 21 days

Row | IC50 ([1]; MiaPaCa-2, 24 h) [µM] | IC50 ([1]; MiaPaCa-2, 48 h) [µM] | IC50 ([1]; MiaPaCa-2, 72 h) [µM] | IC50 ([5]; HCT116, 24 h) [µM] | IC50 ([5]; HCT116, 48 h) [µM] | IC50 ([5]; HCT116, 72 h) [µM] | IC50 (SW480 colon cancer cells; SW480, 24 h) [µM] | IC50 (SW480 colon cancer cells; SW480, 48 h) [µM] | IC50 (SW480 colon cancer cells; SW480, 72 h) [µM] | IC50 ([9]; PANC-1, 24 h) [µM] | IC50 ([9]; PANC-1, 48 h) [µM] | IC50 ([9]; PANC-1, 72 h) [µM] | SMILES | colony formation (HCT116 cells [6]) | inhibition of cell proliferation (in words) [8] | colonosphere formation (HCT116 cells [10]) | G0/G1 (%) (SW480 cells [11]; SW480, 24 h) | G2M/ (%) (SW480 cells [11]; SW480, 24 h) | S (%) (SW480 cells [11]; SW480, 24 h) | SubG0 Dead Cells (%) (SW480 cells [11]; SW480, 24 h) | cell cycle effect (in words) (SW480 cells [11]; SW480, 24 h) | other results
1 | 25 | 8 | 6 | 10 | 5 | 5 | 10 | 6 | 5 | 45 | 9 | 7 | CC(C)(C)C1=CC(=NNC(=O)c2cc3ccccc3cc2O)C=C(C(C)(C)C)C1=O [DBQ] | inhibit colony formation | potent inhibitor | – | – | – | – | – | – | IC50 (KU7 bladder cancer cells; KU7, 24 h): 20 µM; IC50 (KU7 bladder cancer cells; KU7, 48 h): 8 µM; IC50 (KU7 bladder cancer cells; KU7, 72 h): 6 µM; colony formation (PanC-1 cells): inhibit colony formation; cell cycle effect (in words) (HCT116 cells [2]; 5 μM and 10 μM, 24 hours, propidium iodide flow cytometry): induces G2/M arrest; IC50 ([3]; 24 h): 50 µM; IC50 ([3]; 48 h): 25 µM; IC50 ([3]; 72 h): 6 µM; colony formation (SW480 cells [4]): inhibit colony formation; colonosphere formation (cancer stem cells): potent inhibitors of colonosphere formation; tumor volume [7, 12]: significantly reduced; tumor weight [7, 12]: significantly reduced; IC50 ([8]; 48 h, all the colon, pancreatic and bladder cancer cell lines): < 10 µM; colony formation (MiaPaCa-2 cells): inhibit colony formation
2 | > 10 | > 10 | 5 | > 2 | 0.3 | 0.2 | > 2 | 0.3 | 0.2 | > 10 | 4 | 2.5 | C/C(=N\NC(=O)c1ccncc1)c1ccc2ccccc2c1O [MRL16] | inhibit colony formation | potent inhibitor | inhibits colonosphere formation | 59.8 | 19.7 | 19.7 | 0.77 | induces G1 arrest | G0/G1 (%) (SW480 cells [11]; SW480, 48 h): 58.4%; G2M/ (%) (SW480 cells [11]; SW480, 48 h): 20.1%; S (%) (SW480 cells [11]; SW480, 48 h): 20.0%; SubG0 Dead Cells (%) (SW480 cells [11]; SW480, 48 h): 1.05%; cell cycle effect (in words) (SW480 cells [11]; SW480, 48 h): S-phase arrest; G0/G1 (%) (HCT116 cells [2]; HCT116, 24 h): 57.3%; G2/M (%) (HCT116 cells [2]; HCT116, 24 h): 26.9%; S (%) (HCT116 cells [2]; HCT116, 24 h): 14.5%; SubG0 Dead Cells (%) (HCT116 cells [2]; HCT116, 24 h): 1.11%; G0/G1 (%) (HCT116 cells [2]; HCT116, 48 h): 63.7%; G2/M (%) (HCT116 cells [2]; HCT116, 48 h): 19.9%; S (%) (HCT116 cells [2]; HCT116, 48 h): 14.4%; SubG0 Dead Cells (%) (HCT116 cells [2]; HCT116, 48 h): 1.70%; cell cycle effect (in words) (HCT116 cells [2]): induces G2/M arrest; tumor volume [7, 13]: significantly reduced; tumor weight [7, 13]: significantly reduced; IC50 ([8]; 48 hours, Colon cancer cell lines): < 0.3 µM
3 | > 10 | > 10 | 5 | > 2 | 1 | 0.8 | > 2 | 1 | 0.6 | > 10 | 3 | 1 | C/C(=N\NC(=O)c1cccnc1)c1ccc2ccccc2c1O [MRL17] | inhibit colony formation | potent inhibitor | inhibits colonosphere formation | 54.9 | 22.0 | 22.3 | 0.50 | induces G1 arrest | G0/G1 (%) (SW480 cells [11]; SW480, 48 h): 59.3%; G2M/ (%) (SW480 cells [11]; SW480, 48 h): 18.3%; S (%) (SW480 cells [11]; SW480, 48 h): 20.8%; SubG0 Dead Cells (%) (SW480 cells [11]; SW480, 48 h): 1.12%; cell cycle effect (in words) (SW480 cells [11]; SW480, 48 h): S-phase arrest; G0/G1 (%) (HCT116 cells [2]; HCT116, 24 h): 63.9%; G2/M (%) (HCT116 cells [2]; HCT116, 24 h): 20.9%; S (%) (HCT116 cells [2]; HCT116, 24 h): 14.0%; SubG0 Dead Cells (%) (HCT116 cells [2]; HCT116, 24 h): 0.99%; G0/G1 (%) (HCT116 cells [2]; HCT116, 48 h): 63.1%; G2/M (%) (HCT116 cells [2]; HCT116, 48 h): 20.8%; S (%) (HCT116 cells [2]; HCT116, 48 h): 14.3%; SubG0 Dead Cells (%) (HCT116 cells [2]; HCT116, 48 h): 1.57%; cell cycle effect (in words) (HCT116 cells [2]): induces G2/M arrest
